Measurements as given in ChEMBL document CHEMBL1201862, “PubChem BioAssay data set” (2004).
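Assay format: 96-well plates, 48-hour exposure. GI50 = concentration required for 50% inhibition of growth.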 Activity calls are given as the source filed them. Rule as the data show it: active = GI50 up to about 1.1 µM and inactive = higher.

Experiments:
Test in all cases: growth of human tumour cells (NCI), 48 h
SK-MEL-5 = test system: SK-MEL-5
HCC 2998 = test system: HCC 2998
NCI-H460 = test system: NCI-H460
A549 = test system: A549
BT-549 = test system: BT-549
OVCAR-3 = test system: OVCAR-3
NCI/ADR-RES = test system: NCI/ADR-RES
RXF 393 = test system: RXF 393
PC-3 = test system: PC-3
SNB-75 = test system: SNB-75
SN12C = test system: SN12C
KM12 = test system: KM12
SNB-19 = test system: SNB-19
DU-145 = test system: DU-145
M14 = test system: M14
IGROV-1 = test system: IGROV-1
OVCAR-8 = test system: OVCAR-8
CCRF-CEM = test system: CCRF-CEM
UO-31 = test system: UO-31
Hs-578T = test system: Hs-578T

Question: Which results are given for `O=S(=O)(O)c1cc(S(=O)(=O)O)c2c(/N=N/c3ccc(/N=N/c4ccccc4)cc3)c(O)ccc2c1`?
Answer: GI50 (SK-MEL-5): > 100 µM (inactive); GI50 (HCC 2998): > 100 µM (inactive); GI50 (NCI-H460): > 100 µM (inactive); GI50 (A549): > 100 µM (inactive); GI50 (BT-549): > 100 µM (inactive); GI50 (OVCAR-3): > 100 µM (inactive); GI50 (NCI/ADR-RES): > 100 µM (inactive); GI50 (RXF 393): > 100 µM (inactive); GI50 (PC-3): > 100 µM (inactive); GI50 (SNB-75): > 100 µM (inactive); GI50 (SN12C): > 100 µM (inactive); GI50 (KM12): > 100 µM (inactive); GI50 (SNB-19): > 100 µM (inactive); GI50 (DU-145): > 100 µM (inactive); GI50 (M14): > 100 µM (inactive); GI50 (IGROV-1): > 100 µM (inactive); GI50 (OVCAR-8): > 100 µM (inactive); GI50 (CCRF-CEM): > 100 µM (inactive); GI50 (UO-31): > 100 µM (inactive); GI50 (Hs-578T): > 100 µM (inactive)

Question: Which results are given for `COC(=O)[C@]1(C)CCC[C@@]2(C)C1CC[C@]13C=C(C(C)C)[C@H](CC21)CC3(Cl)C#N` (stereo not given in full)?
Answer: GI50 (SK-MEL-5): 37.8 µM (inactive); GI50 (HCC 2998): 29.8 µM (inactive); GI50 (NCI-H460): 41.7 µM (inactive); GI50 (A549): 57.5 µM (inactive); GI50 (BT-549): 35.6 µM (inactive); GI50 (OVCAR-3): 35 µM (inactive); GI50 (NCI/ADR-RES): 57.7 µM (inactive); GI50 (RXF 393): 24.8 µM (inactive); GI50 (PC-3): 18.9 µM (inactive); GI50 (SNB-75): 4.24 µM (inactive); GI50 (SN12C): 51.1 µM (inactive); GI50 (KM12): 38.1 µM (inactive); GI50 (SNB-19): > 100 µM (inactive); GI50 (DU-145): 43.5 µM (inactive); GI50 (M14): 38.4 µM (inactive); GI50 (IGROV-1): > 100 µM (inactive); GI50 (OVCAR-8): 45.9 µM (inactive); GI50 (CCRF-CEM): 20.7 µM (inactive); GI50 (UO-31): 64.3 µM (inactive); GI50 (Hs-578T): > 100 µM (inactive)

Question: `O=c1c2cc(Br)ccc2oc2nc3n(c(=O)c12)CCCS3` was tested. Which GI50 (SK-MEL-5) did it give?
Answer: 47.5 µM (inactive)

Question: And the GI50 (HCC 2998)?
Answer: > 100 µM (inactive)

Question: And the GI50 (NCI-H460)?
Answer: > 100 µM (inactive)

Question: And the GI50 (A549)?
Answer: > 100 µM (inactive)

Question: And the GI50 (BT-549)?
Answer: > 100 µM (inactive)

Question: And the GI50 (OVCAR-3)?
Answer: > 100 µM (inactive)

Question: What about the GI50 (NCI/ADR-RES) of the same molecule?
Answer: > 100 µM (inactive)

Question: What about the GI50 (RXF 393) of the same molecule?
Answer: > 100 µM (inactive)

Question: What about the GI50 (PC-3) of the same molecule?
Answer: > 100 µM (inactive)

Question: And the GI50 (SNB-75)?
Answer: > 100 µM (inactive)

Question: What about the GI50 (SN12C) of the same molecule?
Answer: > 100 µM (inactive)

Question: And the GI50 (KM12)?
Answer: > 100 µM (inactive)

Question: What about the GI50 (SNB-19) of the same molecule?
Answer: > 100 µM (inactive)

Question: And the GI50 (DU-145)?
Answer: > 100 µM (inactive)

Question: And the GI50 (M14)?
Answer: > 100 µM (inactive)

Question: And the GI50 (IGROV-1)?
Answer: > 100 µM (inactive)

Question: What about the GI50 (OVCAR-8) of the same molecule?
Answer: > 100 µM (inactive)

Question: And the GI50 (CCRF-CEM)?
Answer: > 100 µM (inactive)

Question: And the GI50 (UO-31)?
Answer: 39.2 µM (inactive)

Question: And the GI50 (Hs-578T)?
Answer: > 100 µM (inactive)

Question: How did the GI50 (SK-MEL-5) turn out when `O=C1c2cc([N+](=O)[O-])cc3cc([N+](=O)[O-])cc(c23)C(=O)N1CCCNCCNCCCN1C(=O)c2cc([N+](=O)[O-])cc3cc([N+](=O)[O-])cc(c23)C1=O` was run?
Answer: 0.287 µM (active)

Question: What about the GI50 (HCC 2998) of the same molecule?
Answer: 0.0655 µM (active)

Question: And the GI50 (NCI-H460)?
Answer: 0.0169 µM (active)

Question: And the GI50 (A549)?
Answer: 0.0294 µM (active)

Question: And the GI50 (BT-549)?
Answer: 1.7 µM (inactive)

Question: And the GI50 (OVCAR-3)?
Answer: 0.0897 µM (active)

Question: What about the GI50 (NCI/ADR-RES) of the same molecule?
Answer: 1.34 µM (inactive)

Question: What about the GI50 (RXF 393) of the same molecule?
Answer: 0.0317 µM (active)

Question: What about the GI50 (PC-3) of the same molecule?
Answer: 0.376 µM (active)

Question: And the GI50 (SNB-75)?
Answer: 0.308 µM (active)

Question: What about the GI50 (SN12C) of the same molecule?
Answer: 0.0366 µM (active)

Question: What about the GI50 (KM12) of the same molecule?
Answer: 0.0582 µM (active)

Question: And the GI50 (SNB-19)?
Answer: 0.326 µM (active)

Question: What about the GI50 (DU-145) of the same molecule?
Answer: 0.453 µM (active)

Question: What about the GI50 (M14) of the same molecule?
Answer: 0.384 µM (active)

Question: And the GI50 (IGROV-1)?
Answer: 0.0301 µM (active)

Question: And the GI50 (OVCAR-8)?
Answer: 0.0841 µM (active)

Question: What about the GI50 (CCRF-CEM) of the same molecule?
Answer: < 0.015 µM (active)

Question: What about the GI50 (UO-31) of the same molecule?
Answer: 0.375 µM (active)

Question: And the GI50 (Hs-578T)?
Answer: 0.106 µM (active)
